Data set [1] in a line: Cell cytotoxicity 50 assay (CC50), HEK cells. The class given is cell-based. As to conditions: human. On the procedure: (§1) Cell Cytotoxicity 50 Assay Protocol (CC50) Into a deep well block (DWB), the media for the appropriate cell line (450 μL/well) was added into wells 1-10. Into DWB well 2, 10 mM of drug solution (13.5 μL) was added, followed by an additional volume of the medium (225 μL). The well was pipetted up/down four times. A portion (225 μL) was transferred to well 3, and this process was repeated up to well 10. Using a multichannel pipet, a smaller portion (50 μL/well) was removed from all wells in the DWB and then dispensed on top of the cells in each corresponding row. After adding the drug, the plate was incubated at 37° C. for 72 h. Using a multi-channel pipet, pre-warmed cell titer glo reagent (Promega) (100 μL) was added into every well. After 5 minutes, the total luminescence was measured with a luminometer. CC50 was determined with GraphPad prism template.

A short description of data set [2]: Cell cytotoxicity 50 assay (CC50), MB200 cells, cell titer glo. As to conditions: human. Type of data set: cell-based. On the procedure: as §1, with “(CC50) MB200 cells were grown until 80% confluent in F10 media supplemented with rhFGF basic (10 ng/ml), 15% fetal bovine serum, 1% penicillin streptomycin, 1% amphotericin B, and 1 μM dexamethasone. Adherent MB200 cells growing on 10 cm plate were then trypsinized with 1 ml of trypsin. Once the cells detached from the plate, F10 media (10 mL) was added, and the cells were strained through a 70 μm cell strainer. The cells were counted using a mixture of 10 μL cell suspension with 10 μL of trypan blue. Once the total number of cells were counted, a dilution of 200 k/mL was prepared, and the cells were seeded with 10 k cells/well in a 96-well plate in triplicate, making sure to avoid seeding cells in the edges of the plate to avoid edge effects. Using a multichannel pipet, the 200 k/mL cell dilution (50 μL/well) was added into wells B2-B11, C2-C11, and D2-D11 in triplicate.” for “(CC50)”
Background: In ATP-based viability assays light output follows the ATP content of the culture.

SMILES strings stand for the structures.

Consider 30 compounds from patent US20250313555A1, “2-SUBSTITUTED THIAZOLE AND BENZOTHIAZOLE COMPOSITIONS AND METHODS AS DUX4 INHIBITORS” (ALTAY THERAPEUTICS, INC., priority 2022, published 2025).

One may read the CC50 as the concentration at which the toxic effect on the cells reaches its halfway point.

Regarding `CC(=O)CCCC(=O)Nc1ccc(-c2nc3ccc(C)cc3s2)cc1` [Compound 4], the CC50 at 72 h in data set [1] and in data set [2] was > 10 µM each time.

`O=C(CCc1ccncc1)Nc1ccc(-c2nc3ccccc3s2)cc1` [Compound 12]: the CC50 at 72 h in data set [1] and in data set [2] was > 10 µM each time.

For the compound `O=C(CCc1ncccn1)Nc1ccc(-c2nc3ccccc3s2)cc1` [Compound 51], the CC50 at 72 h in data set [1] and in data set [2] was > 10 µM each time.

Consider `CC(=O)NCCC(=O)Nc1ccc(-c2nc3cnccc3s2)cc1` [Compound 58], for which the CC50 at 72 h in data set [1] and in data set [2] was > 10 µM throughout.

With `O=C(CCN1C(=O)CCC1=O)Nc1ccc(-c2nc3ccccc3s2)o1` [Compound 24], the half-maximal cytotoxic concentration (CC50) at 72 h in data set [1] and in data set [2] was > 10 µM in each case.

`O=C(CCN1CCCC1=O)Nc1ccc(C(=O)c2nc3ccccc3s2)cc1` [Compound 50]: the CC50 at 72 h in data set [1] and in data set [2] was > 10 µM throughout.

As for `O=C(CCC1CCC(=O)N1)Nc1ccc(-c2nc3ccccc3s2)cc1` (stereo not drawn) [Compound 176], the half-maximal cytotoxic concentration (CC50) at 72 h is > 10 µM in data set [1] and 1 to 10 µM in data set [2].

As to `Cc1ccc2nc(-c3ccc(NC(=O)CCN4C(=O)CCC4=O)cc3)sc2c1` [Compound 2], the values for the 50% cytotoxic concentration (CC50) at 72 h in data set [1] and in data set [2] were > 10 µM and 1 to 10 µM, respectively.

For the compound `O=C(CCCN1C(=O)CCC1=O)Nc1nc2ccccc2s1` [Compound 82], the 50% cytotoxic concentration (CC50) at 72 h in data set [1] and in data set [2] was > 10 µM each time.

Regarding `CC(=O)NCCC(=O)Nc1ccc(-c2nc3cc(Cl)ccc3s2)cc1` [Compound 47], the 50% cytotoxic concentration (CC50) at 72 h in data set [1] and in data set [2] was > 10 µM each time.

For the compound `O=C(CCCc1cnco1)Nc1coc(-c2nc3ccccc3s2)c1` [Compound 68], the 50% cytotoxic concentration (CC50) at 72 h in data set [1] and in data set [2] was > 10 µM throughout.

Regarding `CC(=O)NCCC(=O)Nc1coc(-c2nc3ccccc3s2)c1` [Compound 42], the CC50 at 72 h in data set [1] and in data set [2] was > 10 µM each time.

`CC(=O)NCCC(=O)Nc1ccc(-c2nc3ccc(F)cc3s2)cc1` [Compound 45]: the CC50 at 72 h in data set [1] and in data set [2] was > 10 µM each time.

For the compound `O=C(CCN1C(=O)CCC1=O)Nc1ccc(-c2nc3ccccc3s2)cn1` [Compound 6], the CC50 at 72 h in data set [1] and in data set [2] was > 10 µM each time.

On to `O=C1CCC(=O)N1[C@H]1C[C@H](C(=O)Nc2ccc(-c3nc4ccccc4s3)cc2)C1` [Compound 96], for which the CC50 at 72 h in data set [1] and in data set [2] was > 10 µM throughout.

Turning to `O=C(CCCc1cnco1)Nc1ccc(-c2nc3ccccc3s2)cc1` [Compound 63], the CC50 at 72 h in data set [1] was 1 to 10 µM; in data set [2], > 10 µM.

As to `O=C(CCCN1C(=O)CCC1=O)Nc1ccc(-c2nc3ccccc3s2)o1` [Compound 168], the 50% cytotoxic concentration (CC50) at 72 h in data set [1] and in data set [2] was > 10 µM throughout.

As to `CC(=O)NCCC(=O)Nc1ccc(-c2nc3ccc(C)cc3s2)cc1` [Compound 35], the half-maximal cytotoxic concentration (CC50) at 72 h in data set [1] and in data set [2] was > 10 µM in each case.

With `O=C(CCn1ccnn1)Nc1ccc(-c2nc3ccccc3s2)cc1` [Compound 48], the 50% cytotoxic concentration (CC50) at 72 h in data set [1] and in data set [2] was > 10 µM in each case.

`CC(=O)NCCCC(=O)Nc1ccc(-c2ncc(-c3ccccc3)s2)cc1` [Compound 132]: the 50% cytotoxic concentration (CC50) at 72 h in data set [1] and in data set [2] was > 10 µM in each case.

For the compound `CCOCCCC(=O)Nc1ccc(-c2nc3ccc(C)cc3s2)cc1` [Compound 17], the half-maximal cytotoxic concentration (CC50) at 72 h in data set [1] and in data set [2] was 1 to 10 µM in each case.

In the case of `O=C(CCCc1cocn1)Nc1ccc(-c2nc3cc(F)ccc3s2)cc1` [Compound 99], the CC50 at 72 h in data set [1] and in data set [2] was > 10 µM in each case.

As to `CC(=O)NC1CC1C(=O)Nc1ccc(-c2nc3ccccc3s2)cc1` (stereo not drawn) [Compound 100], the cytotoxic concentration (CC50) at 72 h in data set [1] and in data set [2] was > 10 µM in each case.

Regarding `CC(=O)NCCCC(=O)Nc1ccc(-c2ncc(Cl)s2)cc1` [Compound 78], the CC50 at 72 h in data set [1] and in data set [2] was > 10 µM each time.

On to `CC(=O)CCCC(=O)Nc1ccc(-c2nc3ccccc3s2)cc1` [Compound 20], for which the CC50 at 72 h in data set [1] and in data set [2] was > 10 µM throughout.

As to `CCOCCCC(=O)Nc1ccc(-c2nc3ccccc3s2)cc1` [Compound 3], the CC50 at 72 h in data set [1] and in data set [2] was 1 to 10 µM each time.

`O=C(CCc1cocn1)Nc1ccc(-c2nc3ccccc3s2)cc1` [Compound 57]: the CC50 at 72 h in data set [1] and in data set [2] was > 10 µM each time.

As to `CC(=O)NCCCC(=O)Nc1ccc(-c2nc3ccccc3s2)cc1C` [Compound 125], the cytotoxic concentration (CC50) at 72 h in data set [1] and in data set [2] was > 10 µM in each case.

Turning to `CC(=O)OCCCC(=O)Nc1ccc(-c2nc3ccccc3s2)cc1` [Compound 19], the cytotoxic concentration (CC50) at 72 h in data set [1] and in data set [2] was > 10 µM throughout.

For the compound `N#CCCCC(=O)Nc1ccc(-c2nc3ccccc3s2)cc1` [Compound 124], the CC50 at 72 h in data set [1] and in data set [2] was > 10 µM in each case.
